The values below come from ChEMBL document CHEMBL3272212, “Synthesis and antimineralocorticoid activities of some 6-substituted 7 alpha-carboalkoxy steroidal spirolactones” (1977).

Common to all, as to type: functional, Urine
For experiment [1], the system named is Rattus norvegicus. In words: Inhibition of deoxycorticosterone acetate-induced urinary electrolyte effects in intragastrically dosed adrenalectomized rat assessed as increase in Na:K ratio.
Experiment [2] relates to Rattus norvegicus. In words: Inhibition of deoxycorticosterone acetate-induced urinary electrolyte effects in sc dosed adrenalectomized rat assessed as increase in Na:K ratio.
The subject of experiment [3] is Rattus norvegicus. In words: Ratio of MED for Inhibition of deoxycorticosterone acetate-induced urinary electrolyte effects in intragastrically dosed adrenalectomized rat to MED for deoxycorticosterone acetate-induced urinary electrolyte effects in sc dosed adrenalectomized rat.

A value given as a limit tells only on which side of the number the result lay.

For `COC(=O)[C@H]1[C@@H]2[C@H](CC[C@@]3(C)[C@H]2CC[C@@]32CCC(=O)O2)[C@@]2(C)CCC(=O)C=C2[C@@H]1Br`, the figures for the MED in experiment [1] and in experiment [2] were 1.05 mg and 0.58 mg, respectively.

Take `COC(=O)[C@H]1[C@@H]2[C@H](CC[C@@]3(C)[C@H]2CC[C@@]32CCC(=O)O2)[C@@]2(C)CCC(=O)C=C2[C@@H]1O`: the MED in experiment [1] was determined as 2.12 mg; in experiment [2], 0.42 mg.

As for `CC(=O)S[C@@H]1CC2=CC(=O)CC[C@]2(C)[C@H]2CC[C@@]3(C)[C@@H](CC[C@@]34CCC(=O)O4)[C@H]12` [SPIRONOLACTONE], the MED in experiment [1] was 0.48 mg; in experiment [2] it was 0.33 mg.

As for `COC(=O)[C@H]1[C@@H]2[C@H](CC[C@@]3(C)[C@H]2CC[C@@]32CCC(=O)O2)[C@@]2(C)CCC(=O)C=C2[C@@H]1C`, the results for the MED in experiment [1] and in experiment [2] were 0.58 mg and 0.2 mg, respectively.

For the compound `CC(C)OC(=O)[C@H]1[C@@H]2[C@H](CC[C@@]3(C)[C@H]2CC[C@@]32CCC(=O)O2)[C@@]2(C)CCC(=O)C=C2[C@@H]1O`, the MED in experiment [1] came to 1.81 mg; in experiment [2], 0.28 mg. For the same compound, the Ratio in experiment [3] is given as 6.

As for `COC(=O)[C@H]1[C@@H]2[C@H](CC[C@@]3(C)[C@H]2CC[C@@]32CCC(=O)O2)[C@@]2(C)CCC(=O)C=C2[C@H]1C`, the figures for the MED in experiment [1] and in experiment [2] were over 2.4 mg and 0.47 mg, respectively.

With `C=C1C2=CC(=O)CC[C@]2(C)[C@H]2CC[C@@]3(C)[C@@H](CC[C@@]34CCC(=O)O4)[C@@H]2[C@@H]1C(=O)OC`, the MED in experiment [1] and in experiment [2] was over 2.4 mg throughout.

`[2H][C@H]1C2=CC(=O)CC[C@]2(C)[C@H]2CC[C@@]3(C)[C@@H](CC[C@@]34CCC(=O)O4)[C@@H]2[C@@H]1C(=O)OC`: the MED in experiment [1] came to 1 mg; in experiment [2], 0.3 mg.
